“Also recorded” adds a separate entry of the source.

The record followed here is patent US20030180295A1, “Angiocidin: a Cys-Ser-Val-Thr-Cys-Gly specific tumor cell adhesion receptor” (Philadelphia Health and Education Corporation, priority 1999, published 2003).

The subject of data set [1] is Bovine aortic endothelial cells (BAEC). Put plainly: ALAMAR BLUE cell viability assay. In kind it is cell-based. As to the method:
(§1) Bovine aortic endothelial cells (BAEC), human umbilical vein endothelial cells (HUVEC), fibroblast cells, A549 human lung carcinoma cells (A549), MDA-MB231 human breast carcinoma cells (MB231), MCF7 human breast carcinoma cells (MCF7) were treated with 37 μg/ml of receptor, or buffer alone, for 24 hours. Viability of the cells was measured using the ALAMAR BLUE™ assay, which measures the capacity of cells to metabolize the ALAMAR BLUE™ dye. The ALAMAR BLUE™ assay (available from Biosource International, Camarillo, Calif.) quantitatively measures the proliferation of cell lines and can establish the relative cytotoxicity of chemical agents. The assay incorporates a fluorometric/colorimetric growth indicator based on detection of metabolic activity. The system incorporates an oxidation-reduction (redox) indicator that both fluoresces and changes color in response to chemical reduction of growth medium resulting from cell growth. This causes the redox indicator to change from its oxidized, non-fluorescent, blue form to its reduced, fluorescent, red form. Data can be collected using either fluorescence-based instrumentation (530-560 nm excitation wavelength and 590 nm emission wavelength) or absorbance-based instrumentation (570 nm and 600 nm).
BAEC and BSM cells were treated with increasing concentrations of angiocidin (0, 0.625, 1.25, 2.5, 5, 15, 26 and 37 μg/ml) for 24 hours. Cell viability was measured using the ALAMAR BLUE Tm assay. […] In contrast, BSM cells are unaffected.
The methods of Example 21 were followed, except BAEC cells were used. Additionally, TSP-1 was added at both 20 μg/ml and 5 μg/ml.
As discussed in Example 19 above, angiocidin was added to BAEC cells. Fragments of angiocidin were added as well. […] GST was used as a negative control. V36-R42, the active site of the antisecretory factor, had no effect, illustrating that angiocidin plays a different role from antisecretory factor.
Bovine aortic endothelial cells (BAEC) were cultured overnight in serum-free media containing either 37 μg/ml his-tagged angiocidin or his-tagged GST. Both angiocidin and GST were expressed in bacteria transformed with the pTrcHisA expression vector and purified on nickel affinity chromatography under non-denaturing conditions. Viability was measured by the ALAMAR BLUE™ assay.
This study examined the effect of anti-angiocidin antibody on angiocidin-mediated inhibition of BAEC viability. BAEC were cultured overnight in serum-free media containing either 5 μg/ml angiocidin, 5 μg/ml angiocidin plus 100 μg/ml control IgG, or 5 μg/ml angiocidin plus 100 μg/ml anti-angiocidin IgG. Viability was measured using the ALAMAR BLUE™ assay, described above.
The endothelial cells (BAEC) were incubated overnight 37 μg/ml of the angiocidin, fragments, and GST. Viability was measured using the ALAMAR BLUE™ assay.

For data set [2], the system named is mouse Lewis lung carcinoma cells. As to the kind of experiment: ALAMAR BLUE cell viability assay. In kind it is cell-based. To be noted: 0 to 37 μg/ml, 24 hours. As to the method:
as §1, with “This causes the redox indicator to change from its oxidized, non-fluorescent, blue form to its reduced, fluorescent, red form.” left out
BAEC and BSM cells were treated with increasing concentrations of angiocidin (0, 0.625, 1.25, 2.5, 5, 15, 26 and 37 μg/ml) for 24 hours. Cell viability was measured using the ALAMAR BLUE Tm assay. […]

The test system of another data set is BAEC. As to the kind of experiment: Adhesion of BAEC to a substrate. In kind it is cell-based, bovine. To be noted: cells pretreated with 37 μg/ml, 30 minutes. The method, then: This example evaluates the effect of angiocidin on adhesion of BAEC to a substrate. Cells in the treatment group were pretreated with angiocidin (37 μg/ml). Cells in the control group were not pretreated. Cells (50,000) were immediately plated on microtiter wells coated with 2 μg of either fibronectin, TSP-1, or BSA. Fibronectin is a strong extracellular matrix protein that attracts BAEC and serves as a positive control, whereas BSA is not an adhesion protein and serves as a negative control. After 30 minutes non-adherent cells were aspirated, wells washed with PBS, fixed with 2.5% glutaraldehyde, stained with 2% Giemsa, and the number of adherent cells per 1 mm^2 counted.

The next data set concerns Lewis lung carcinoma. As to the kind of experiment: Survival of mice bearing Lewis lung carcinoma (IV injected cells). It is filed as in vivo. The conditions noted are these: 50 μg IV on days 1, 3, 5, 7, 9. The method, then:
Ten mice were injected with one million Lewis lung carcinoma tumor cells in an IV injection. After 3 days of incubation, the mice were divided into two groups. One group of five mice were treated with an IV injection of 50 μg of angiocidin in Hepes buffered saline. The control group of five mice was treated with Hepes buffered saline. Mice were treated on days 1, 3, 5, 7, and 9.

For another data set, the target named is TSP-1 (Homo sapiens, UniProt P07996). Put plainly: Optical binding of angiocidin fragments to TSP-1 derivatized cuvette. The conditions noted are these: test proteins at 10 nm in PBS buffer. As to the method:
This study examines the amino terminal (Met1-Lys132) and carboxy terminal (IIe248-Lys380) portions of angiocidin (SEQ ID NOS: 24 and 25, respectively). The binding of undenatured recombinant angiocidin fragments was compared to full length angiocidin. GST was used as a negative control. Binding was evaluated using an optical binding method that uses a cuvette to which TSP-1 is covalently coupled. A laser beam was used to detect whether the test protein (fragments, angiocidin, or GST) is bound to the TSP-1 derivatized cuvette surface. The cuvette was derivatized with 1 μg of TSP-1. The cuvette surfaces were blocked with a 1% BSA solution to prevent nonspecific binding. The test proteins were added at a concentration of […] in a PBS buffer.

Chain of TSP-1 (P07996 19-1170): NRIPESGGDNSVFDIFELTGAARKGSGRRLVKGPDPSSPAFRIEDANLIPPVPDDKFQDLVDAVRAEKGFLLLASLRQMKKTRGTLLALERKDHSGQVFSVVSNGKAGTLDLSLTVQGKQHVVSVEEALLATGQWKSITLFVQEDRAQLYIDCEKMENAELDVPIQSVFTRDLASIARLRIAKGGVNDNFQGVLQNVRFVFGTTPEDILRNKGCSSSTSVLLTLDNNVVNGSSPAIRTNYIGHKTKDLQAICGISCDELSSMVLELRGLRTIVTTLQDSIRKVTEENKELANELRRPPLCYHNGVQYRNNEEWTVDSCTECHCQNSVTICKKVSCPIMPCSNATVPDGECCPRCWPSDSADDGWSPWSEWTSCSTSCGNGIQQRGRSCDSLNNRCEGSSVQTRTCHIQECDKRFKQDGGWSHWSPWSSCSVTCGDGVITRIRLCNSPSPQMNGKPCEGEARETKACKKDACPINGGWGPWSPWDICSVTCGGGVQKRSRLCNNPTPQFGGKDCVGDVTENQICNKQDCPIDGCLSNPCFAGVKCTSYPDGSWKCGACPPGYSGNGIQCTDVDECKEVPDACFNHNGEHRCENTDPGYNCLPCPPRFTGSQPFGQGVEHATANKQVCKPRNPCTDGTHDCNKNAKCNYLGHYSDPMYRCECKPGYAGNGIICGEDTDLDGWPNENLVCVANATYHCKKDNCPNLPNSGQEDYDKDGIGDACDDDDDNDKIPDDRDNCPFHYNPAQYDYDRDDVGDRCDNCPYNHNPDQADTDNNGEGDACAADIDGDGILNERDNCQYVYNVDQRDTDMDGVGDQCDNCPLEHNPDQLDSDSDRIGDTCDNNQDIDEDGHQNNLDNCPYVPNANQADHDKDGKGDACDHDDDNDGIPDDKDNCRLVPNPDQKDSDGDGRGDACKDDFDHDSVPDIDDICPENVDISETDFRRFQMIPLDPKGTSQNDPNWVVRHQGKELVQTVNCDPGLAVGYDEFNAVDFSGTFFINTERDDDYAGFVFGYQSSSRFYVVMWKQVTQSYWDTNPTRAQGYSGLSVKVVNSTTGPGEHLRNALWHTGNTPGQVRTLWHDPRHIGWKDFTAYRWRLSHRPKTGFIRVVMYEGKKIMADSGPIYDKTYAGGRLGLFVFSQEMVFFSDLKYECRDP

Consider “angiocidin: Cys-Ser-Val-Thr-Cys-Gly (SEQ ID NO: 1)-specific thrombospondin (TSP-1) receptor protein; recombinant form of SEQ ID NO: 2 used in the Examples”, for which the cell viability entry in data set [1] (0 to 37 μg/ml, 24 hours) was “dose dependent inhibition of BAEC cell viability; also recorded: decreases viability of BAEC cells”; in data set [2], “does not affect the Lewis lung cells”. For the same substance, the “decrease of cell viability” value in data set [1] (37 μg/ml, 24 hours) is listed as 70-80%. The “cell viability, angiocidin and fragments” value in data set [1] (Example 27, FIG. 34) is listed as “inhibited cell viability”. In addition, the “cell viability, his-tagged proteins” value in data set [1] (overnight, serum-free media, purified under non-denaturing conditions) was “dose-dependent effect on cell viability”. Also, the “adhesion of BAEC” value in the data set on BAEC (TSP-1 coated wells) is given as “significantly reduced the adhesion of BAEC to the TSP-1 coated plates”; with BAEC (fibronectin coated wells), “remained the same”. Moreover, the median survival period in the data set with Lewis lung carcinoma is on record as 19 days. Moreover, in the data set with TSP-1, the “binding to TSP-1 derivatized cuvette” value is on record as “show very similar binding at the nano molar range”.
